Consider 26 compounds from ChEMBL document CHEMBL1126391 (Bioorg Med Chem Lett, 1992).

Data set [1] deals with C8166. In words: In vitro anti-viral activity against C8166 cells (human T-cell line), expressed as the lowest test concentration affording complete protection to the culture (Infectious titre); 0.1-1. The class given is functional.
The target in data set [2] is T1, Human immunodeficiency virus type 1 reverse transcriptase (Human immunodeficiency virus 1, UniProt Q72547). The experiment in a line: Ability to inhibit HIV-1 IIIB reverse transcriptase catalyzed incorporation of tritiated thymidine triphosphate onto a biotinylated rA.dT template primer.
Data set [3] deals with H9. The experiment in a line: In vitro antiviral activity against human T-cell line (H9) infected with HIV-1 IIIB was determined as the lowest concentration required to reduce tissue culture supernatant p24 levels on day 7 by 90%. The class given is functional. The conditions noted are these: H9, 168 h.
The target in data set [4] is T1, Human immunodeficiency virus type 1 reverse transcriptase. The experiment in a line: Ability to inhibit HIV-1 IIIB reverse transcriptase catalyzed incorporation of tritiated thymidine triphosphate onto a biotinylated rN.dN template primer.
Data set [5] is described as follows: Concentration determined to be cytotoxic (reduced cell number as compared with controls), was recorded after 7 days incubation in the […] assay system. The conditions noted are these: human, H9 cells (H9/HIV-IIIB assay system); read-out: Cell toxicity. It is filed as cell-based.
Data set [6] relates to C8166. The experiment in a line: In vitro anti-viral activity against C8166 cells (human T-cell line), expressed as the lowest test concentration affording complete protection to the culture (Infectious titre). It is filed as functional.
Data set [7] has as its system C8166. The experiment in a line: In vitro anti-viral activity against C8166 cells (human T-cell line), expressed as the lowest test concentration affording complete protection to the culture (Infectious titre);. 0.1-1. It is filed as functional.
Data set [8] concerns C8166. The experiment in a line: In vitro anti-viral activity against C8166 cells (human T-cell line), expressed as the lowest test concentration affording complete protection to the culture (Infectious titre); 0.01-0.1. It is filed as functional.
Data set [9] deals with C8166. The experiment in a line: In vitro anti-viral activity against C8166 cells (human T-cell line), expressed as the lowest test concentration affording complete protection to the culture (Infectious titre);. 0.1-0.5. The class given is functional.
In data set [10] the test system is C8166. In words: In vitro anti-viral activity against C8166 cells (human T-cell line), expressed as the lowest test concentration affording complete protection to the culture (Infectious titre); 0.1-0.5. The class given is functional.

As for `CCN1c2ncccc2-c2ncc(C)n2-c2ccc(N(C)C)nc21`, the IC100 in data set [1] is 0.1 µM. Also, the values for the IC50 in data set [2] and in data set [4] were 2.4 µM and 1.1 µM, respectively. The same compound displayed a concentration for an effect of 90% (IC90) in [3] of 0.25 µM. Moreover, in data set [5], the MCC at 168 h is greater than 100 µM.

Regarding `Cc1nnc2n1-c1cccnc1N(C1CC1)c1ncccc1-2`, the IC50 in data set [2] came out at 11.5 µM; in [4], 7.82 µM.

Regarding `CCN1c2ncccc2-c2nncn2-c2cccnc21`, in data set [2], the 50% inhibitory concentration (IC50) came out at 72.8 µM.

For `CCN1c2ncccc2-c2nccn2-c2ccc(OC)nc21`, the figures for the half-inhibitory concentration (IC50) in [2] and in data set [4] were 0.598 µM and 0.258 µM, respectively. In data set [3], this compound had an IC90 of 0.008 µM. The MCC at 168 h in [5] was greater than 10 µM. Further, the IC100 in data set [6] is 0.1 µM.

Regarding `CCN1c2ncccc2-c2nnc(C(C)C)n2-c2cccnc21`, the concentration for half-maximal inhibition (IC50) in data set [2] was greater than 100 µM; in data set [4], 62.6 µM.

In the case of `CCN1c2ncccc2-c2nc(C)cn2-c2cccnc21`, the IC50 in data set [2] turned out to be 11.2 µM; in data set [4], 2.75 µM.

Regarding `CCN1c2ncccc2-c2nccn2-c2c(C)ccnc21`, the IC50 in [2] is 1.62 µM; in data set [4], 0.245 µM. The same compound registered an IC90 in [3] of 0.55 µM. Moreover, the MCC at 168 h in data set [5] is greater than 100 µM. In data set [7], the IC100 was found to be 0.1 µM.

With `CCc1nnc2n1-c1cccnc1N(CC)c1ncccc1-2`, the 50% inhibitory concentration (IC50) in data set [2] is 56.6 µM; in data set [4] it was 20.2 µM.

For `CCN1c2ncccc2-c2nnc(C)n2-c2cccnc21`, in data set [2], the half-inhibitory concentration (IC50) is 38.9 µM. This lies in the double-digit micromolar range.

In the case of `CCN1c2ncccc2-c2ncc(C)n2-c2ccc(N3CCCC3)nc21`, the figures for the 50% inhibitory concentration (IC50) in [2] and in [4] were 2.7 µM and 1.77 µM, respectively.

For the compound `CCN1c2ncccc2-c2nnnn2-c2c(C)ccnc21`, the half-inhibitory concentration (IC50) came to 75.1 µM in [2] and 6.72 µM in [4].

On to `CCN1c2ncccc2C(=O)Nc2c(C)ccnc21`, for which the IC50 in data set [2] stood at 10.3 µM; in [4], 1.5 µM.

In the case of `CCN1c2ncccc2-c2ncc(C)n2-c2cccnc21`, the IC100 in data set [8] is 0.01 µM. Also, the values for the IC50 in [2] and in data set [4] were 1.22 µM and 0.425 µM, respectively. This compound also had an IC90 in data set [3] of 0.018 µM. In data set [5], the MCC at 168 h was greater than 100 µM.

`CCN1c2ncccc2-c2ncc(C)n2-c2ccc(OC)nc21`: the IC50 turned out to be 0.19 µM in data set [2] and 0.156 µM in data set [4]. This compound gave an IC90 in data set [3] of 0.0023 µM. The MCC at 168 h in [5] was greater than 10 µM. The compound also yielded an IC100 in [6] of 0.01 µM.

In the case of `Cc1ccnc2c1-n1ccnc1-c1cccnc1N2C1CC1`, the half-inhibitory concentration (IC50) in [2] turned out to be 2.05 µM; in data set [4] it was 0.217 µM.

With `CCN1c2ncccc2-c2nccn2-c2ccc(N(C)C)nc21`, the 50% inhibitory concentration (IC50) is 3.9 µM in [2] and 2.19 µM in [4]. The same compound had an IC90 in [3] of 0.041 µM. Further, the MCC at 168 h in [5] was found to be 10 µM. Further, the IC100 in data set [6] amounted to 0.1 µM.

The compound `CCN1c2ncccc2-c2ncc(C)n2-c2ccc(O)nc21` yielded an IC100 in data set [1] of 0.1 µM. Besides, the IC50 in data set [2] is 12.2 µM; in data set [4], 3.2 µM. Also, the 90% effect level in [3] (IC90) was put at 0.11 µM. Also, the MCC at 168 h in data set [5] is greater than 100 µM.

`CCN1c2ncccc2-c2nnc(C)n2-c2c(C)ccnc21` gave an IC50 in [2] of 198 µM.

For `CCN1c2ncccc2-c2nnc(CN(C)C)n2-c2cccnc21`, the IC50 in data set [2] and in data set [4] was greater than 100 µM each time.

For the compound `CCN1c2ncccc2-c2nccn2-c2cccnc21`, the 50% inhibitory concentration (IC50) in data set [2] came to 11.2 µM; in data set [4], 0.775 µM. It took 0.07 µM to reach the 90% level in [3] (IC90). For the same compound, in [5], the MCC at 168 h is 50 µM. The compound further showed an IC100 in data set [9] of 0.1 µM.

As for `CCN1c2ncccc2-c2nccn2-c2ccc(O)nc21`, the 50% inhibitory concentration (IC50) in [2] amounted to 23.9 µM; in [4] it was 6.98 µM.

On to `CCc1cnc2n1-c1cccnc1N(CC)c1ncccc1-2`, for which the IC50 in [2] turned out to be 5.63 µM; in [4], 1.1 µM.

For the compound `CCN1c2ncccc2-c2nccn2-c2ccc(N3CCCC3)nc21`, in data set [1], the IC100 is 0.1 µM. In addition, the figures for the IC50 in [2] and in [4] were 3.9 µM and 2 µM, respectively. In [3], this compound yielded a 90% effect concentration (IC90) of 0.082 µM. Also, the MCC at 168 h in data set [5] was found to be 100 µM.

In data set [2], `CCN1c2ncccc2-c2nnc(-c3ccccc3)n2-c2cccnc21` registered a half-inhibitory concentration (IC50) greater than 100 µM.

In data set [2], `CCN1c2ncccc2-c2nncn2-c2c(C)ccnc21` yielded a half-maximal inhibitory concentration (IC50) of 44.5 µM.

`Cc1ccnc2c1NC(=O)c1cccnc1N2C1CC1` [NEVIRAPINE] registered an IC100 in data set [10] of 0.1 µM. This compound had an IC90 in data set [3] of 0.078 µM. Moreover, the MCC at 168 h in data set [5] is greater than 10 µM.
